Here are results for 68 compounds from US9393221B2, “Methods and compounds for reducing intracellular lipid storage” (THE GENERAL HOSPITAL CORPORATION, priority 2011, dated 2016).

Counter-ions that a name gives are not always drawn.

One assay concerns ATGL-KO iPSCs. Put plainly: High throughput iPSC chemical screening, Oil Red O (ORO) lipid accumulation. On Z-score: test concentration or dose not given here. The class given is cell-based, mouse.
Conditions: not given
For `CNCCC(Oc1ccccc1OC)c1ccccc1` (centres unmarked) [Nisoxetine hydrochloride], the Z-score is −1.699.

Take `C[C@]12CC[C@@H](O)C[C@@H]1CC[C@@H]1[C@@H]2CC[C@]2(C)C(=O)CC[C@@H]12` [Androsterone]: the Z-score was 1.156.

Staying with this assay, now noted: glycolytic switch compounds.
With `CC(NCCC(c1ccccc1)c1ccccc1)c1ccccc1` (centres unmarked) [Fendiline hydrochloride, reference compound], the “Rank in normalized ORO score from screen” value was found to be 1.

Take `CCN1CCCC(OC(=O)C(c2ccccc2)c2ccccc2)C1` (centres unmarked) [Piperidolate hydrochloride]: the “Rank in normalized ORO score from screen” value is given as 449.

For the compound `CCC(=O)O[C@H]1CC[C@H]2[C@@H]3CCC4=CC(=O)CC[C@]4(C)[C@H]3CC[C@]12C` [Testosterone propionate], the “Rank in normalized ORO score from screen” value is 857.

The same assay, now with this note: normalized ORO level vs DMSO-treated cells; compound present during 7 days differentiation, 96-well; negative = decrease in lipid accumulation.
As for `NS(=O)(=O)c1cc(Cl)c(Cl)c(S(N)(=O)=O)c1` [Dichlorphenamide], the Z-score was determined as 0.1624.

The compound `CC[C@]12CCCN3CCc4c(n(c5ccccc45)[C@](O)(C(=O)OC)C1)[C@@H]32` [Epivincamine] showed a Z-score of 0.1161.

Take `COc1ccc(-c2ccc(=N)n(CCCC(=O)O)n2)cc1` [Gabazine]: the Z-score is on record as −0.1416.

With `Cn1nnnc1SCC1=C(C(=O)O)N2C(=O)[C@@H](NC(=O)[C@H](O)c3ccccc3)[C@H]2SC1` [Cefamandole sodium salt], the Z-score is on record as −0.5703.

The compound `CNCCc1ccccn1.CS(=O)(=O)O.CS(=O)(=O)O` [Betahistine mesylate] came in with a Z-score of 1.556.

As to Solanine alpha, the Z-score is −1.7798.

On to `CN(C)CCOC(C)(c1ccccc1)c1ccccn1` (centres unmarked) [Doxylamine succinate], for which the Z-score was found to be 0.07172.

With `CC1(C)S[C@@H]2[C@H](NC(=O)[C@H](C(=O)O)c3ccsc3)C(=O)N2[C@H]1C(=O)O` [Ticarcillin sodium], the Z-score is given as −0.1446.

For `Cc1cccc(CN2CCN(C(c3ccccc3)c3ccc(Cl)cc3)CC2)c1` (centres unmarked) [Meclozine dihydrochloride], the Z-score is 1.227.

On to `NC12CC3CC(CC(C3)C1)C2.NC12CC3CC(CC(C3)C1)C2.O=C(O)/C=C/C(=O)O` [Adamantamine fumarate], for which the Z-score worked out at 0.2085.

For `S=C(NC1CCCCC1)N1CCC(c2cnc[nH]2)CC1` [Thioperamide maleate], the Z-score is recorded as −0.6114.

On to `CCS(=O)(=O)CCn1c([N+](=O)[O-])cnc1C` [Tinidazole], for which the Z-score is listed as −0.3977.

`CCCCNc1ccc(C(=O)OCCN(C)C)cc1.Cl` [TetracaOne hydrochloride]: the Z-score is reported as −0.5979.

In the case of `Cc1cc(C)nc(NS(=O)(=O)c2ccc(N)cc2)n1` [Sulfamethazine sodium salt], the Z-score was 1.431.

Regarding `CN(C)C(=O)Oc1cc(OC(=O)N(C)C)cc(C(O)CNC(C)(C)C)c1` (centres unmarked) [Bambuterol hydrochloride], the Z-score is reported as 0.1858.

Take `CN1CCC2=C[C@H](O)[C@H]3OC(=O)c4cc5c(cc4[C@H]3[C@@H]21)OCO5` [Hippeastrine hydrobromide]: the Z-score is listed as −1.1441.

As for `COCCc1ccc(OCC(O)CNC(C)C)cc1.COCCc1ccc(OCC(O)CNC(C)C)cc1.O=C(O)C(O)C(O)C(=O)O` (racemic) [Metoprolol-(+,−) (+)-tartrate salt], the Z-score was −0.4304.

For `CCN(CC)CCNC(=O)c1cc(Cl)c(N)cc1OC` [Metoclopramide monohydrochloride], the Z-score is listed as −1.0824.

Turning to `COC(=O)C1=CCCN(C)C1` [Arecoline hydrobromide], the Z-score turned out to be 0.1373.

Consider Colistin sulfate, for which the Z-score is given as −0.5041.

`Cc1cc2nc3c(=O)[nH]c(=O)nc-3n(C[C@H](O)[C@H](O)[C@H](O)CO)c2cc1C` [Riboflavine]: the Z-score is listed as 0.1165.

For Bromocryptine mesylate, the Z-score is listed as −0.775.

`CC(NCCC(c1ccccc1)c1ccccc1)c1ccccc1` (centres unmarked) [Fendiline hydrochloride, reference compound]: the Z-score is given as −2.53.

Take `Oc1cc(O)c2c(c1)O[C@H](c1ccc(O)c(O)c1)[C@H](O)C2` [Epicatechin-(−)]: the Z-score stood at 0.9251.

Consider `NC(=O)c1ncn([C@@H]2O[C@H](CO)[C@@H](O)[C@H]2O)n1` [Ribavirin], for which the Z-score is listed as −1.5081.

As to `CCOC(=O)[C@H](CCc1ccccc1)N[C@@H](C)C(=O)N1CCC[C@H]1C(=O)O` [Enalapril maleate], the Z-score amounted to 0.1645.

`C=CCSCC1Nc2cc(Cl)c(S(N)(=O)=O)cc2S(=O)(=O)N1` (centres unmarked) [Althiazide]: the Z-score is given as 0.2816.

As for `C=C1c2c(Cl)ccc(O)c2C(=O)C2=C(O)[C@]3(O)C(=O)C(C(N)=O)=C(O)[C@@H](N(C)C)[C@@H]3[C@@H](O)[C@H]12.O=C(O)c1cc(S(=O)(=O)O)ccc1O` [Meclocycline sulfosalicylate], the Z-score is 8.326.

As to `CO[C@@H]1C=C2CCN(C)[C@@H]2C2c3cc4c(cc3C(=O)OC21)OCO4.O=[N+]([O-])O` (some centres unmarked) [Ungerine nitrate], the Z-score is −1.1174.

In turn, `c1ccc(C2CN3CCSC3=N2)cc1` (centres unmarked) [Tetramisole hydrochloride] displayed a Z-score of 0.1333.

For `Nc1ccc(S(=O)(=O)c2ccc(N)cc2)cc1` [Dapsone], the Z-score is −0.4061.

Turning to `C[C@]12C[C@H](O)[C@H]3[C@@H](CCC4=CC(=O)CC[C@@]43C)[C@@H]1CC[C@@H]2C(=O)CO` [Corticosterone], the Z-score is on record as −1.2709.

For the compound `CC(=O)O[C@H]1C[C@H](O[C@H]2[C@@H](O)C[C@H](O[C@H]3[C@@H](O)C[C@H](O[C@H]4CC[C@@]5(C)[C@H](CC[C@@H]6[C@@H]5C[C@@H](O)[C@]5(C)[C@@H](C7=CC(=O)OC7)CC[C@]65O)C4)O[C@@H]3C)O[C@@H]2C)O[C@H](C)[C@H]1O[C@@H]1O[C@H](CO)[C@@H](O)[C@H](O)[C@H]1O` [Lanatoside C], the Z-score is −1.0291.

As for `CCCCOc1ccc(C(=O)CCN2CCCCC2)cc1` [Dyclonine hydrochloride], the Z-score is −1.4276.

Regarding `CCN1CCCC(OC(=O)C(c2ccccc2)c2ccccc2)C1` (centres unmarked) [Piperidolate hydrochloride], the Z-score is listed as −0.4895.

Turning to `CCN(CC)C(C)CN1c2ccccc2Sc2ccccc21` (centres unmarked) [Ethopropazine hydrochloride], the Z-score is on record as −1.7382.

As for `O=C(O)/C=C/c1ccc(Cn2ccnc2)cc1` [Ozagrel hydrochloride], the Z-score was −0.6787.

`COc1ccc2c(c1)[nH]c1c(C)nccc12.Cl` [Harmine hydrochloride] registered a Z-score of 0.3085.

In the case of `O.Oc1cc(O)c2c(c1)OC(c1ccc(O)c(O)c1)C(O)C2` (racemic) [Catechin-(+,−) hydrate], the Z-score is reported as −0.9777.

As to `COc1ccc2c3c([nH]c2c1)[C@H]1C[C@H]2[C@H](C[C@@H](O)[C@H](OC)[C@H]2C(=O)O)CN1CC3.Cl` [Reserpinic acid hydrochloride], the Z-score is −1.3417.

For the compound `C=C1CC[C@H](O)C/C1=C/C=C1\CCC[C@]2(C)[C@@H]([C@H](C)/C=C/[C@H](C)C(C)C)CC[C@@H]12` [Calciferol], the Z-score is listed as 0.2582.

The compound `CN[C@@H]1[C@H](O[C@H]2[C@H](O[C@H]3[C@H](O)[C@@H](O)[C@H](NC(=N)N)[C@@H](O)[C@@H]3NC(=N)N)O[C@@H](C)[C@]2(O)CO)O[C@@H](CO)[C@H](O)[C@H]1O` [Dihydrostreptomycin sulfate] returned a Z-score of 1.253.

Regarding `NCC[C@H](O)C(=O)N[C@@H]1C[C@H](N)[C@@H](O[C@H]2O[C@H](CN)[C@@H](O)[C@H](O)[C@H]2O)[C@H](O)[C@H]1O[C@H]1O[C@H](CO)[C@@H](O)[C@H](N)[C@H]1O` [Amikacin hydrate], the Z-score is on record as 2.444.

`CCn1cc(C(=O)O)c(=O)c2cnc(N3CCNCC3)nc21` [Pipemidic acid]: the Z-score was −1.4165.

Turning to `O=C1c2ccccc2C(=O)C1c1ccccc1` [Phenindione], the Z-score was 0.2654.

For Verteporfin, the Z-score is −0.2331.

Turning to Ifenprodil tartrate, the Z-score turned out to be 0.8399.

On to `CC[C@]12CCCN3CCc4c(n(c5ccccc45)[C@@](O)(C(=O)OC)C1)[C@@H]32` [Vincamine], for which the Z-score is −0.4826.

In the case of `CCCCC1(COC(=O)CCC(=O)O)C(=O)N(c2ccccc2)N(c2ccccc2)C1=O` [Suxibuzone], the Z-score is listed as −1.3282.

Consider `Nc1nc(N)c2nc(-c3ccccc3)c(N)nc2n1` [Triamterene], for which the Z-score was −1.3039.

In turn, Dihydroergotoxine mesylate gave a Z-score of 1.217.

`CC=CC(=O)N(CC)c1ccccc1C` [Crotamiton]: the Z-score was found to be 2.886.

(S)-propranolol hydrochloride: the Z-score came out at 0.368.

`C#CCN(C)CCCOc1ccc(Cl)cc1Cl` [Clorgyline hydrochloride]: the Z-score is reported as −0.8658.

Consider `CC1(C)OC(=O)NC1=O` [Dimethadione], for which the Z-score is given as −0.9493.

Turning to Trimeprazine tartrate, the Z-score is given as −1.418.

With `C1CCN2C[C@@H]3C[C@@H](CN4CCCC[C@@H]34)[C@H]2C1` [Sparteine (−)], the Z-score is listed as −0.3524.

Compound `CCC(=O)O[C@H]1CC[C@H]2[C@@H]3CCC4=CC(=O)CC[C@]4(C)[C@H]3CC[C@]12C` [Testosterone propionate] yielded a Z-score of 0.7489.

On to `CCCCc1ccc(C(=O)O)nc1` [Fusaric acid], for which the Z-score was −0.977.

As for `COc1cc([C@@H]2c3cc4c(cc3[C@H](O)[C@H]3COC(=O)[C@H]23)OCO4)cc(OC)c1OC` [Podophyllotoxin], the Z-score worked out at 46.4771.

For the compound `CCOC(=O)O[C@]1(C(=O)COC(=O)CC)CC[C@H]2[C@@H]3CCC4=CC(=O)C=C[C@]4(C)[C@H]3[C@@H](O)C[C@@]21C` [Prednicarbate], the Z-score is −0.9408.

`Cc1cc(C(C)(C)CC(C)(C)C)ccc1OCCOCC[N+](C)(C)Cc1ccccc1.[Cl-]` [Methyl benzethonium chloride]: the Z-score is on record as 12.6356.

Compound `CCCC1O[C@@H]2C[C@H]3[C@@H]4CCC5=CC(=O)C=C[C@]5(C)[C@H]4[C@@H](O)C[C@]3(C)[C@]2(C(=O)CO)O1` (some centres unmarked) [Budesonide] returned a Z-score of 19.1411.

As for `CC(=O)CCCCn1c(=O)c2c(ncn2C)n(C)c1=O` [Pentoxifylline], the Z-score is listed as −1.1547.

On to `CC[N+](C)(CC)CCOC(=O)C1c2ccccc2Oc2ccccc21` [Methantheline bromide], for which the Z-score is listed as −0.7033.

With `CCn1cc(C(=O)O)c(=O)c2cc(F)c(N3CCNCC3)nc21` [Enoxacin], the Z-score is −0.7386.
